The values below come from the NIST ThermoML archive (doi:10.1021/je300083m).

This data set can be described thus: mn = molality of the nth substance listed, in mol/kg. The following applies: 101 kPa, Liquid, m1 = 0.512.

The structures appear in SMILES notation. Numbers after ± are expanded uncertainties.

On to `O=[N+]([O-])[O-].[K+]` [potassium nitrate] + O, for which the mass density (usually mass per unit of volume) runs as follows: (298.15 K) 1027.98 ± 0.22 kg/m3; (303.15 K) 1026.22 ± 0.22 kg/m3; (308.15 K) 1024.1 ± 0.21 kg/m3; (313.15 K) 1022.05 ± 0.21 kg/m3; (318.15 K) 1020.2 ± 0.21 kg/m3; (323.15 K) 1018.2 ± 0.2 kg/m3.

Take `O=S(=O)([O-])[O-].[K+].[K+]` [potassium sulfate] + O: the mass density (298.15 K) is 1063.81 ± 0.3 kg/m3; the mass density (303.15 K) was found to be 1062.02 ± 0.29 kg/m3; the mass density (308.15 K) is recorded as 1060.06 ± 0.29 kg/m3; the mass density (313.15 K) stood at 1057.74 ± 0.29 kg/m3; the mass density (318.15 K) came out at 1055.14 ± 0.28 kg/m3; the mass density (323.15 K) stood at 1052.95 ± 0.28 kg/m3.
